Measurements reported in the supplement of paper PMC10307832.

Key:
Assay in all cases: relative viability (nuclei count vs DMSO), 5 days (fraction); higher = more cells survive
[1] = compound: CN(C)C/C=C/C(=O)Nc1cc2c(Nc3ccc(F)c(Cl)c3)ncnc2cc1O[C@H]1CCOC1 [Afatinib] + CC1(C)CCC(c2ccc(Cl)cc2)=C(CN2CCN(c3ccc(C(=O)NS(=O)(=O)c4ccc(N[C@H](CCN5CCOCC5)CSc5ccccc5)c(S(=O)(=O)C(F)(F)F)c4)cc3)CC2)C1 [Navitoclax] (partner 0.5 µM)
Procedure, shortened: (§1)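 For relative viability, nuclei counts in treated wells were divided by those in vehicle wells. Lung cancer cell lines had been pin-tool dosed in 1536-well plates the day after seeding and cultured for 5 days, then fixed and stained in one step (final 0.05% Triton X-100, 1% formaldehyde, 1 ug/ml Hoechst) and imaged at 4×. Doses were one drug alone or a fixed anchor-drug dose plus five library-drug doses (not always all listed) in √10 steps, and values are duplicate-plate medians.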

[2] = compound: CN(C)C/C=C/C(=O)Nc1cc2c(Nc3ccc(F)c(Cl)c3)ncnc2cc1O[C@H]1CCOC1 [Afatinib] + CC(=O)Nc1cccc(-n2c(=O)n(C3CC3)c(=O)c3c(Nc4ccc(I)cc4F)n(C)c(=O)c(C)c32)c1 [Trametinib] (partner 0.02 µM)
Procedure, shortened: as §1

[3] = compound: CN(C)C/C=C/C(=O)Nc1cc2c(Nc3ccc(F)c(Cl)c3)ncnc2cc1O[C@H]1CCOC1 [Afatinib] + N=C(N)NC(=N)NCCc1ccccc1 [Phenformin] (partner 250 µM)
Procedure, shortened: as §1

[4] = compound: CN(C)C/C=C/C(=O)Nc1cc2c(Nc3ccc(F)c(Cl)c3)ncnc2cc1O[C@H]1CCOC1 [Afatinib] + Nc1nc2[nH]cc(CCc3ccc(C(=O)N[C@@H](CCC(=O)O)C(=O)O)cc3)c2c(=O)[nH]1 [Pemetrexed] (partner 0.2 µM)
Procedure, shortened: as §1

Row | Cell Line | relative viability ([1]; first compound 0.005 µM) | relative viability ([1]; first compound 0.01581 µM) | relative viability ([1]; first compound 0.05 µM) | relative viability ([1]; first compound 0.1581 µM) | relative viability ([1]; first compound 0.5 µM) | relative viability ([2]; first compound 0.005 µM) | relative viability ([2]; first compound 0.01581 µM) | relative viability ([2]; first compound 0.05 µM) | relative viability ([2]; first compound 0.1581 µM) | relative viability ([2]; first compound 0.5 µM) | relative viability ([3]; first compound 0.005 µM) | relative viability ([3]; first compound 0.01581 µM) | relative viability ([3]; first compound 0.05 µM) | relative viability ([3]; first compound 0.1581 µM) | relative viability ([3]; first compound 0.5 µM) | relative viability ([4]; first compound 0.005 µM) | relative viability ([4]; first compound 0.01581 µM) | relative viability ([4]; first compound 0.05 µM) | relative viability ([4]; first compound 0.1581 µM) | relative viability ([4]; first compound 0.5 µM)
1 | NCI-H838 | 1.12 | 1.14 | 1.27 | 1.2 | 1.16 | 0.585 | 0.434 | 0.523 | 0.525 | 0.685 | 0.675 | 0.54 | 0.582 | 0.567 | 0.553 | 0.246 | 0.243 | 0.259 | 0.243 | 0.259
2 | SW 1573 | 0.878 | 1.08 | 1.13 | 0.819 | 0.943 | 0.524 | 0.551 | 0.616 | 0.526 | 0.53 | 0.387 | 0.376 | 0.353 | 0.299 | 0.393 | 0.747 | 0.852 | 0.86 | 0.769 | 0.861
3 | PC-14 | 0.377 | 0.334 | 0.372 | 0.334 | 0.349 | 0.101 | 0.103 | 0.117 | 0.0763 | 0.0964 | 0.173 | 0.123 | 0.175 | 0.161 | 0.171 | 0.155 | 0.155 | 0.164 | 0.165 | 0.149
4 | LK-2 | 1.02 | 0.779 | 0.868 | 0.883 | 0.835 | 0.908 | 0.846 | 0.633 | 0.78 | 0.73 | 0.471 | 0.306 | 0.422 | 0.488 | 0.574 | 0.33 | 0.229 | 0.239 | 0.326 | 0.248
5 | COR-L23 | 1.14 | 0.982 | 0.948 | 0.997 | 1.03 | 0.625 | 0.648 | 0.723 | 0.582 | 0.608 | 0.479 | 0.446 | 0.449 | 0.437 | 0.45 | 0.22 | 0.201 | 0.214 | 0.201 | 0.192
6 | LCLC-103H | – | – | – | – | – | 0.602 | 0.698 | 0.736 | 0.634 | 0.697 | 0.319 | 0.358 | 0.326 | 0.37 | 0.353 | 0.485 | 0.478 | 0.514 | 0.492 | 0.48
7 | ABC-1 | – | – | – | – | – | – | – | – | – | – | 0.245 | 0.241 | 0.264 | 0.239 | 0.325 | – | – | – | – | –
8 | NCI-H358 | – | – | – | – | – | 0.119 | 0.115 | 0.13 | 0.102 | 0.127 | 0.266 | 0.171 | 0.171 | 0.163 | 0.175 | 0.16 | 0.146 | 0.153 | 0.137 | 0.141
9 | NCI-H1563 | – | – | – | – | – | – | – | – | – | – | 0.625 | 0.667 | 0.649 | 0.651 | 0.623 | 0.782 | 0.719 | 0.921 | 0.777 | 0.822
10 | EBC-1 | 0.507 | 0.457 | 0.465 | 0.396 | 0.343 | – | – | – | – | – | – | – | – | – | – | – | – | – | – | –
11 | Calu-6 | 0.836 | 0.786 | 0.831 | 0.914 | 0.81 | – | – | – | – | – | – | – | – | – | – | – | – | – | – | –
